From article PMC9395488, “First-in-human study of IM156, a novel potent biguanide oxidative phosphorylation (OXPHOS) inhibitor, in patients with advanced solid tumors” (Investigational New Drugs, 2022)

Tested on: patients with advanced solid tumors
Test: First-in-human phase 1 dose-escalation study: safety, DLTs, adverse events
Format: in vivo
Excerpt: This multicenter first-in-human dose-escalation phase 1 study (clinicaltrials.gov identifier: NCT03272256) was designed to determine the MTD or RP2D and to evaluate the safety and tolerability of IM156. Secondary endpoints included PK characteristics, efficacy assessment (objective response rate [ORR], disease control rate [DCR], duration of response [DoR] and progression-free survival [PFS]). Furthermore, exploratory objectives included identification and profiling of IM156 metabolites, evaluations of exploratory PD markers of IM156, and evaluations of any potential relationship between putative biomarkers and safety/efficacy parameters of IM156. The study was conducted in accordance with Good Clinical Practice, the International Council for Harmonisation, and guidelines governing clinical study conduct and the ethical principles originating from the Declaration of Helsinki. The study was approved by each Institutional Review Board and patients provided written informed consent. Patients were enrolled at three sites in South Korea.
The initial dose and schedule of IM156 was chosen based on animal toxicology studies. […] IM156 was administered in the fasted state, with no food for at least 2 h before and 1 h after dosing.
Three DLT-evaluable patients were enrolled at each dose level. If there were no DLTs or other prohibitive adverse events (AEs), the Safety Committee was allowed to recommend escalation to the next highest dose level. If 1 DLT occurred in the first 3 DLT-evaluable patients, enrollment in that cohort was expanded to an additional 3 DLT-evaluable patients; if ≥ 2 DLTs were reported in a cohort, that dose was considered above the MTD.
Safety was assessed through vital signs, weight, laboratory assessments, physical examinations, electrocardiogram, and reporting of AEs as graded by the National Cancer Institute’s Common Terminology Criteria for Adverse Events v4.03 (NCI-CTCAE).
DLTs were defined as the following AEs if they were attributed as related to IM156: asymptomatic grade 4 neutropenia lasting for ≥ 5 days; febrile neutropenia, regardless of grade; grade 4 thrombocytopenia or grade 3 thrombocytopenia with bleeding; any grade ≥ 3 non-hematologic AE (except grade 3 hypertension and grade 3 nausea, vomiting or diarrhea for which proper measures for prevention and treatment were not implemented, and alopecia); blood lactate levels > 5 mmol; grade ≥ 2 AE prohibiting dosing of IM156 for ≥ 21 continuous days except for alterations in serum calcium or phosphorus levels. The safety analysis includes all patients who received at least one dose of study drug.
The safety population was defined as all patients who received at least one dose of IM156. The PK population was not defined in the protocol but included all patients with sufficient PK data to perform adequate PK modeling. The efficacy population included all patients who underwent at least one tumor imaging assessment while receiving IM156. Safety was assessed using descriptive statistics (e.g., DLTs, AEs, laboratory tests, physical examination, 12-lead ECG). The incidence and number of events were reported for the DLTs observed in Cycle 1 per dose group. […] Adverse events and TRAEs were standardized with the System Organ Class and the Preferred Term using the Medical Dictionary for Regulatory Activities v23.0. In addition, TEAEs, serious adverse events (SAEs), TEAE severity, and TEAEs leading to withdrawal were presented by dose group. Efficacy data were to be presented by Waterfall and Swim Lane plots. Time to event endpoints (e.g., DoR, PFS) were determined using Kaplan–Meier estimations with the median value for each endpoint summarized.

[1] = DL3 400 mg orally every other day (n=3)
[2] = DL4 800 mg orally every other day (n=3)

Structure (SMILES): NC(=Nc1ccc(OC(F)(F)F)cc1)N=C(N)N1CCCC1 [IM156]
- TRAE Blood Lactic Acid increased, > G3 (patients) (DL3 400 mg QOD oral, N = 3): 0
- TRAE Blood Lactic Acid increased, All grades (patients) (DL3 400 mg QOD oral, N = 3): 0
- TRAE Constipation, > G3 (patients) (DL3 400 mg QOD oral, N = 3): 0
- TRAE Constipation, All grades (patients) (DL3 400 mg QOD oral, N = 3): 0
- TRAE Decreased appetite, > G3 (patients) (DL3 400 mg QOD oral, N = 3): 0
- TRAE Decreased appetite, All grades (patients) (DL3 400 mg QOD oral, N = 3): 0
- TRAE Diarrhoea, > G3 (patients) (DL3 400 mg QOD oral, N = 3): 0
- TRAE Diarrhoea, All grades (patients) (DL3 400 mg QOD oral, N = 3): 0
- TRAE Fatigue, > G3 (patients) (DL3 400 mg QOD oral, N = 3): 0
- TRAE Fatigue, All grades (patients) (DL3 400 mg QOD oral, N = 3): 0
- TRAE Insomnia, > G3 (patients) (DL3 400 mg QOD oral, N = 3): 0
- TRAE Insomnia, All grades (patients) (DL3 400 mg QOD oral, N = 3): 1
- TRAE Nausea, > G3 (patients) (DL3 400 mg QOD oral, N = 3): 0
- TRAE Nausea, All grades (patients) (DL3 400 mg QOD oral, N = 3): 3
- TRAE Vomiting, > G3 (patients) (DL3 400 mg QOD oral, N = 3): 0
- TRAE Vomiting, All grades (patients) (DL3 400 mg QOD oral, N = 3): 1
- TEAE Adrenal insufficiency grade 1 [1]: 0
- TEAE Adrenal insufficiency grade 2 [1]: 0
- TEAE Adrenal insufficiency grade 3 [1]: 0
- TEAE Adrenal insufficiency grade 4 [1]: 0
- TEAE Anaemia grade 1 [1]: 0
- TEAE Anaemia grade 2 [1]: 0
- TEAE Anaemia grade 3 [1]: 0
- TEAE Anaemia grade 4 [1]: 0
- TEAE Appendicitis perforated grade 1 [1]: 0
- TEAE Appendicitis perforated grade 2 [1]: 0
- TEAE Appendicitis perforated grade 3 [1]: 0
- TEAE Appendicitis perforated grade 4 [1]: 0
- TEAE Back pain grade 1 [1]: 0
- TEAE Back pain grade 2 [1]: 0
- TEAE Back pain grade 3 [1]: 0
- TEAE Back pain grade 4 [1]: 0
- TEAE Cystitis grade 1 [1]: 0
- TEAE Cystitis grade 2 [1]: 0
- TEAE Cystitis grade 3 [1]: 0
- TEAE Cystitis grade 4 [1]: 0
- TEAE Dry skin grade 1 [1]: 0
- TEAE Dry skin grade 2 [1]: 0
- TEAE Dry skin grade 3 [1]: 0
- TEAE Dry skin grade 4 [1]: 0
- TEAE Flank pain grade 1 [1]: 0
- TEAE Flank pain grade 2 [1]: 0
- TEAE Flank pain grade 3 [1]: 0
- TEAE Flank pain grade 4 [1]: 0
- TEAE Hypertension grade 1 [1]: 0
- TEAE Hypertension grade 2 [1]: 1
- TEAE Hypertension grade 3 [1]: 0
- TEAE Hypertension grade 4 [1]: 0
- TEAE Hypotension grade 1 [1]: 0
- TEAE Hypotension grade 2 [1]: 0
- TEAE Hypotension grade 3 [1]: 0
- TEAE Hypotension grade 4 [1]: 0
- TEAE Insomnia grade 1 [1]: 1
- TEAE Insomnia grade 2 [1]: 0
- TEAE Insomnia grade 3 [1]: 0
- TEAE Insomnia grade 4 [1]: 0
- TEAE Pain in extremity grade 1 [1]: 1
- TEAE Pain in extremity grade 2 [1]: 0
- TEAE Pain in extremity grade 3 [1]: 0
- TEAE Pain in extremity grade 4 [1]: 0
- TEAE Pruritus grade 1 [1]: 0
- TEAE Pruritus grade 2 [1]: 0
- TEAE Pruritus grade 3 [1]: 0
- TEAE Pruritus grade 4 [1]: 0
- TEAE Psychiatric disorders grade 1 [1]: 1
- TEAE Psychiatric disorders grade 2 [1]: 0
- TEAE Psychiatric disorders grade 3 [1]: 0
- TEAE Psychiatric disorders grade 4 [1]: 0
- TEAE Purpura grade 1 [1]: 0
- TEAE Purpura grade 2 [1]: 0
- TEAE Purpura grade 3 [1]: 0
- TEAE Purpura grade 4 [1]: 0
- TEAE Urinary retention grade 1 [1]: 0
- TEAE Urinary retention grade 2 [1]: 0
- TEAE Urinary retention grade 3 [1]: 0
- TEAE Urinary retention grade 4 [1]: 0
- TEAE Urinary tract disorder grade 1 [1]: 0
- TEAE Urinary tract disorder grade 2 [1]: 0
- TEAE Urinary tract disorder grade 3 [1]: 0
- TEAE Urinary tract disorder grade 4 [1]: 0
- TEAE Abdominal pain upper, grade 2 (DL4 800 mg QOD (n=3)): 1
- TEAE Abdominal pain, grade 1 (DL4 800 mg QOD (n=3)): 1
- TEAE Abdominal pain, grade 3 (DL4 800 mg QOD (n=3)): 1
- TEAE Asthenia, grade 1 (DL4 800 mg QOD (n=3)): 1
- TEAE Chest pain, grade 1 (DL4 800 mg QOD (n=3)): 1
- TEAE Constipation, grade 1 (DL4 800 mg QOD (n=3)): 1
- TEAE Constipation, grade 2 (DL4 800 mg QOD (n=3)): 1
- TEAE Cough, grade 1 (DL4 800 mg QOD (n=3)): 1
- TEAE Diarrhoea, grade 1 (DL4 800 mg QOD (n=3)): 3
- TEAE Fatigue, grade 1 (DL4 800 mg QOD (n=3)): 1
- TEAE Nausea, grade 1 (DL4 800 mg QOD (n=3)): 2
- TEAE Nausea, grade 2 (DL4 800 mg QOD (n=3)): 1
- TRAE Abdominal Pain, > G3 (patients) (DL4 800 mg QOD oral, N = 3): 0
- TRAE Abdominal Pain, All grades (patients) (DL4 800 mg QOD oral, N = 3): 1
- TRAE Blood Lactic Acid increased, > G3 (patients) (DL4 800 mg QOD oral, N = 3): 0
- TRAE Blood Lactic Acid increased, All grades (patients) (DL4 800 mg QOD oral, N = 3): 0
- TRAE Constipation, > G3 (patients) (DL4 800 mg QOD oral, N = 3): 0
- TRAE Constipation, All grades (patients) (DL4 800 mg QOD oral, N = 3): 0
- TRAE Decreased appetite, > G3 (patients) (DL4 800 mg QOD oral, N = 3): 0
- TRAE Decreased appetite, All grades (patients) (DL4 800 mg QOD oral, N = 3): 0
- TRAE Diarrhoea, > G3 (patients) (DL4 800 mg QOD oral, N = 3): 0
- TRAE Diarrhoea, All grades (patients) (DL4 800 mg QOD oral, N = 3): 3
- TRAE Fatigue, > G3 (patients) (DL4 800 mg QOD oral, N = 3): 0
- TRAE Fatigue, All grades (patients) (DL4 800 mg QOD oral, N = 3): 1
- TRAE Insomnia, > G3 (patients) (DL4 800 mg QOD oral, N = 3): 0
- TRAE Insomnia, All grades (patients) (DL4 800 mg QOD oral, N = 3): 0
- TRAE Nausea, > G3 (patients) (DL4 800 mg QOD oral, N = 3): 0
- TRAE Nausea, All grades (patients) (DL4 800 mg QOD oral, N = 3): 3
- TRAE Vomiting, > G3 (patients) (DL4 800 mg QOD oral, N = 3): 0
- TRAE Vomiting, All grades (patients) (DL4 800 mg QOD oral, N = 3): 0
- TEAE Adrenal insufficiency grade 1 [2]: 0
- TEAE Adrenal insufficiency grade 2 [2]: 0
- TEAE Adrenal insufficiency grade 3 [2]: 0
- TEAE Adrenal insufficiency grade 4 [2]: 0
- TEAE Anaemia grade 1 [2]: 0
- TEAE Anaemia grade 2 [2]: 0
- TEAE Anaemia grade 3 [2]: 0
